From article PMC9131275, “Drug-induced self-assembled nanovesicles for doxorubicin resistance reversal via autophagy inhibition and delivery synchronism” (Theranostics, 2022)
Where a name gives a salt, the structure may show the parent alone. Read-outs that look alike come from different tables or passages of the source.

What was measured:
[1] = ref [20], [21]; cited from earlier work
[2] = system: MCF-7/ADR cells; experiment: Annexin V-FITC/PI apoptosis assay; assay type: cell-based, human; conditions: 5 μg/mL DOX·HCl and/or 10 µg/mL CQ, 48 h
[3] = system: MCF-7 cells; experiment: Cytotoxicity by CCK-8 kit, 48 h; assay type: cell-based; conditions: Homo sapiens
Description: (§1) The cytotoxicity of free DOX·HCl, free CQ, physical mixture of free DOX·HCl and CQ (DC), physical mixture of PPAP and cholesteryl hemisuccinate (PPAP/C) and drug-loaded nanovesicles on MCF-7 cells, MCF-7/ADR cells, K562 cells or K562/ADR cells was investigated at 48 h via CCK-8 kit. Accordingly, the reversal index (RI) of DOX·HCl for MCF-7/ADR cells and K562/ADR cells was calculated using the following formula: RI = […]. The combination index (CI) between DOX⋅HCl and CQ at different ratios was calculated as follows: CI = D1/(Dm)1 + D2/(Dm)2 + D1*D2/(Dm)1*(Dm)2, where D1 and (Dm)1 represent the IC50 values of DOX⋅HCl applied in combination or alone, respectively, and D2 and (Dm)2 represent the IC50 values of CQ applied in combination or alone, respectively. In addition, apoptosis analysis was implemented using the Annexin V-FITC/PI kit (LianKe, China) based on the kit instructions. The details were provided by Supplementary Material (Supplementary section 1). […]
(§2) Cytotoxicity and annexin V-FITC/PI apoptosis assay
(§3) To investigate the cytotoxicity of free DOX·HCl, free CQ, physical mixture of free DOX·HCl and CQ, PPAP/C and drug-loaded nanovesicles, various cell lines (MCF-7, […]
(§4) cells/well, respectively, and cultured in RPMI 1640 containing 10 % fetal bovine serum […]
(§5) at 37 °C with 5 % CO2. After 24 h, cells were exposed to increasing concentrations of different formulations for 48 h. Then, 10 µL of CCK-8 reagent was added to each well and the plates were incubated for 2 h. And the absorbency was determined by a microplate reader (Thermo, USA) at 450 nm. […]
(§6) Afterwards, rhodamine 123 (2 µg/mL) was incubated with these cells for 30 […]
(§7) minutes at 37°C . […]
(§8) 104 cells was collected for each sample at the appropriate period.

[4] = system: K562 cells; experiment: Cytotoxicity by CCK-8 kit, 48 h; assay type: cell-based; conditions: Homo sapiens
Description: as §1, §2, §3, §4, §5, §6, §7, §8

[5] = system: K562/ADR cells; experiment: Annexin V-FITC/PI apoptosis assay; assay type: cell-based, human; conditions: 5 μg/mL DOX·HCl and/or 10 µg/mL CQ, 48 h
[6] = target: T1, P-gp (Homo sapiens, UniProt P08183); experiment: P-gp functional activity (rhodamine 123 accumulation, flow cytometry); assay type: cell-based; conditions: MCF-7/ADR and K562/ADR cells, increasing CQ concentrations
T1 construct: the extremely high expression of P-gp existed in MCF-7/ADR cells and K562/ADR cells; host or cells: MCF-7/ADR and K562/ADR cells
T1 sequence (P08183 whole entry): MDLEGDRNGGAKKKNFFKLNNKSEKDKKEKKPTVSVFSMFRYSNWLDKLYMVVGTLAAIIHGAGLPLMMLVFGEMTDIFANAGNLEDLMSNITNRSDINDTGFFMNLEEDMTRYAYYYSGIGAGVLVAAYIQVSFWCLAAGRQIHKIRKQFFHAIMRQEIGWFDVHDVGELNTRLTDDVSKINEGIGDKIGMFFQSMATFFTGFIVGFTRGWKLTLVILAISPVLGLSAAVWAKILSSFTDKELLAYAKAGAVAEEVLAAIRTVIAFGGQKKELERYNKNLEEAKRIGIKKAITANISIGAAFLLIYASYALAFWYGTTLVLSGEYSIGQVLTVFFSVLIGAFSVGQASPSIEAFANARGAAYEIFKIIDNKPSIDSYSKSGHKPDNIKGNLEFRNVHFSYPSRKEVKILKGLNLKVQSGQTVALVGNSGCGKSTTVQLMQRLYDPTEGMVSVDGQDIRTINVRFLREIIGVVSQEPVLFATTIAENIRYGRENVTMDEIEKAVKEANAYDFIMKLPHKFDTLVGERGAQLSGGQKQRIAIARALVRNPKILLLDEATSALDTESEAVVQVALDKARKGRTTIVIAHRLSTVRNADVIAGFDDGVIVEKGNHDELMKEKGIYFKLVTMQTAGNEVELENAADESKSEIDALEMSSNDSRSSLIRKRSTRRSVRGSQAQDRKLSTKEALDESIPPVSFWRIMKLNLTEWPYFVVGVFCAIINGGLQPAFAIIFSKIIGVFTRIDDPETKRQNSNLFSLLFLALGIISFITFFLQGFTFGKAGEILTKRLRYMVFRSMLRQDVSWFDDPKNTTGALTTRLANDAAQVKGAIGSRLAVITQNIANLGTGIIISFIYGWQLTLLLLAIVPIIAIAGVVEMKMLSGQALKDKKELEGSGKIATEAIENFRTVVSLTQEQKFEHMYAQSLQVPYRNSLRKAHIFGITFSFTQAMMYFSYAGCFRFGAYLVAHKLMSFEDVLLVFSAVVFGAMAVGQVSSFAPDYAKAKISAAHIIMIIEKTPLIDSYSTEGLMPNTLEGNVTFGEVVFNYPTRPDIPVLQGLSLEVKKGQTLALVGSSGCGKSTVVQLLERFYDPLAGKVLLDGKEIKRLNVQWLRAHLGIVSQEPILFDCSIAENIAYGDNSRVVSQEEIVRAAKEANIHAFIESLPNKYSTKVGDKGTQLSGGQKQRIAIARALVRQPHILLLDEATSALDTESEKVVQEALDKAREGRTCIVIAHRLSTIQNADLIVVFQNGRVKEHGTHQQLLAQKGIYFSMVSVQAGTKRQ
Description: as §5, with “nm. Data are reported as means of triplicate” for “nm.”
The apoptosis analysis was further investigated. Briefly, MCF-7/ADR or K562/MDR cells (2 × 10^5 cells/well) were seeded in 12-well plates and incubated overnight in RPMI 1640 containing 10 % fetal bovine serum. Afterwards, the cells were incubated with various formulations for 48 h at the final DOX·HCl and CQ concentration of 5 and 10 µg/mL, respectively. The cells were treated according to the kit instructions and analyzed by flow cytometry.
P-gp functional activity evaluation
Flow cytometry analysis was used to investigate the effect of CQ on the functional activity of P-gp through monitoring the intracellular uptake of rhodamine 123, namely, a kind of P-gp substrate. Specifically, MCF-7/ADR cells and K562/ADR cells (2 × 10^5 cells/well) were seeded in 12-well plates, respectively. […] Then the cell suspension was analyzed by flow cytometry with the 488 nm argon ion laser. Also, the individual fluorescence of 104 cells was collected for each sample at the appropriate period.

[7] = system: K562/ADR tumors; experiment: In vivo anti-tumor activity; parameters: species or system BALB/c nude mice; conditions: K562/ADR tumor-bearing nude mice, i.v. at 0, 2, 4 and 6 days, Day 16
Description: (§9) The BALB/c nude mice were subcutaneously inoculated with K562/ADR cells (2×10^7 cells) on the right flank to construct K562/ADR tumor-bearing mice models. After 10 days, mice were randomly divided into seven groups (n = 5) once the tumors reached about 80 mm^3. And then various formulations were injected intravenously through the tail vein every other day for four times and saline was taken as the control group. […] Later, the mice were sacrificed and the tumors were excised and weighted. In addition, tumors and major organs (heart, liver, spleen, lung, and kidney) were collected for slice analysis by hematoxylin and eosin (H&E) staining. The tumors were also analyzed by immunohistochemical detection of Ki67, immunofluorescence assay of LC3 and terminal deoxynucleotidyl transferased dUTP nick end labeling (TUNEL) assay.

[8] = system: K562/ADR cells; experiment: Cytotoxicity by CCK-8 kit, 48 h; assay type: cell-based, human
Description: (§10) Accordingly, the reversal index (RI) of DOX·HCl for MCF-7/ADR cells and K562/ADR cells was calculated using the following formula: RI = IC50 of the test formulation / IC50 of free DOX·HCl.
(§11) at 37 °C with 5 % CO2. After 24 h, cells were exposed to increasing concentrations of different formulations for 48 h. Then, 10 µL of CCK-8 reagent was added to each well and the plates were incubated for 2 h. And the absorbency was determined by a microplate reader (Thermo, USA) at 450 nm. Data are reported as means of triplicate

[9] = mouse, in vivo
Description: as §9

[10] = system: MCF-7/ADR cells; experiment: Cytotoxicity by CCK-8 kit, 48 h; assay type: cell-based, human
Description: as §10, §11

For `CCN(CC)CCCC(C)Nc1ccnc2cc(Cl)ccc12` (centres unmarked) [CQ, Chloroquine], the “plasma protein binding rate” value [1] is listed as 60%, the Apoptosis rate [2] is listed as 33.64% and the IC50 ([3]; MCF7, 48 h) is listed as 23.9 ± 0.42 µg/mL. For the same molecule, the IC50 ([4]; K562, 48 h) was 17.4 ± 1.34 µg/mL, the Apoptosis rate [5] was 40.17% and the “effect on efflux activity of P-gp (rhodamine 123 accumulation)” value [6] was “can inhibit the efflux activity of P-gp”.
In the case of `COc1cccc2c1C(=O)c1c(O)c3c(c(O)c1C2=O)C[C@@](O)(C(=O)CO)C[C@@H]3O[C@H]1C[C@H](N)[C@H](O)[C@H](C)O1` [DOX·HCl, Doxorubicin hydrochloride], the Apoptosis rate [2] is reported as 40.83%, the IC50 ([3]; MCF7, MCF-7 cells, within 48 h, read-out: IC50) is reported as 0.08 ± 0.01 µg/mL and the IC50 ([4]; K562 cells, within 48 h, read-out: IC50) is reported as 0.15 ± 0.06 µg/mL. For the same molecule, the Apoptosis rate [5] was 42.56%, the “tumor inhibition rate (TIR)” value [7] was 28.80% and the IC50 ([8]; Homo sapiens, K562/ADR cells, 48 h, read-out: IC50 of DOX·HCl) was 18.9 µg/mL. The “DOX·HCl-resistance index” value ([8]; K562/ADR cells vs sensitive cells) was 126 fold, the “body weight change during treatment” value [9] was “sharp decrease in body weight” and the “histopathological abnormalities of hearts (H&E)” value [9] was “severe histopathological abnormalities and lesions in the cardiac muscles”. For the same molecule, the IC50 ([10]; Homo sapiens, NCI/ADR-RES, MCF-7/ADR cells, 48 h, read-out: IC50 of DOX·HCl) was 72.1 µg/mL and the “DOX·HCl-resistance index” value ([10]; MCF-7/ADR cells vs sensitive cells) was 902 fold.
